Data on 10 compounds can be found in patent US9573910B2, “Oxazolidinone antibacterial compound” (Lee Pharma Limited, priority 2013, dated 2017).

Read-outs that look alike come from different tables or passages of the source.

The subject of one assay is S. maltophilia. Put plainly: Susceptibility test profile for commercially available antibiotics. The assay is classed as cell-based, Stenotrophomonas maltophilia. How it is done:
Anti bacterial evaluation of compound-I was done against Stenotrophomonas maltophilia on following parameters— • f. Agar-plate assay for different concentrations (10, 50, 100, 150 μg) • g. MIC studies • 1. With different concentrations (1000 to 5 μg/ml-˜10 different concentrations) • 2. Different time periods (4 to 32 hrs—8 different time intervals) • h. Mode of action with relation to survivability of organism • 1. Cidal/static with concentration and incubation time based) • 2. Evaluation by colony counting/dye based • i. Susceptibility test (evaluation of >40 antibiotics of different nature) • j. Antibacterial potential studies with other infectious bacteria (˜20 different strains) Results Agar-Plate Assay
Susceptibility Test Profile of S. maltophilia for Different Antibiotics (FIG. 10)

The next assay relates to E. coli. The assay is classed as cell-based.
A further assay relates to B. cereus (2). The assay is classed as cell-based.
In the next assay the test system is P. aeruginosa. The assay is classed as cell-based.
The next assay concerns P. putida. It is filed as cell-based.
Another assay relates to S. mutans. The assay is classed as cell-based.
Another assay relates to B. sphaericus. The assay is classed as cell-based.
A further assay deals with P. mirabilis. The assay is classed as cell-based.
The test system of another assay is B. circulans. The assay is classed as cell-based.
The subject of another assay is M. luteus. The assay is classed as cell-based.
The subject of another assay is S. maltophilla. It is filed as cell-based.
The subject of another assay is Lysinobacillus. It is filed as cell-based.
For another assay, the system named is B. cereus (1). It is filed as cell-based.
The next assay concerns B. sterothemophilus. The assay is classed as cell-based.
The next assay has as its system B. megatherium. The assay is classed as cell-based.
The next assay relates to B. cereus (3). It is filed as cell-based.
Assay [1] relates to Stenotrophomonas maltophilia. In words: Agar plate assay, zone of growth inhibition. It is filed as cell-based. To be noted: for zone of inhibition at 50 µg/disc: Stenotrophomonas maltophilia, read-out: Zone of growth inhibition in mm; for Activity against S. maltophilia (in words): agar plate. Here is the method:
To evaluate the same, 0 to 250 μg concentration range used for agar plate assay. Two percent agar plates were prepared and 24 hours grown S. maltophilia was spread on agar plate and incubated at 4° C. After 30 min, the agar plates consisting of S. maltophilia were brought to sterile environment at room temperature and using sterile borer wells were developed. […] After 24 hours of incubation at 37° C., the zone of inhibition was measured.

For another assay, the system named is P. vulgaris. It is filed as cell-based.
The subject of the next assay is B. subtilis. The assay is classed as cell-based.
The test system of the next assay is S. typhi. The assay is classed as cell-based.
In the next assay the test system is K. pneumonia. It is filed as cell-based.

As for `CC[C@H]1OC(=O)[C@H](C)[C@@H](O[C@H]2C[C@@](C)(OC)[C@@H](O)[C@H](C)O2)[C@H](C)[C@@H](O[C@@H]2O[C@H](C)C[C@H](N(C)C)[C@H]2O)[C@](C)(OC)C[C@@H](C)C(=O)[C@H](C)[C@@H](O)[C@]1(C)O` [Clarithromycin], the “Zone (mm)” value with S. maltophilia (Quantity 15 μg) is recorded as “Resistant”.

As to `O=C1OCCN1/N=C/c1ccc([N+](=O)[O-])o1` [Furazolidone], in the assay with S. maltophilia (Quantity 50 μg), the “Zone (mm)” value is given as “Resistant”.

For `CCC[C@@H]1C[C@@H](C(=O)N[C@@H]([C@H]2O[C@H](SC)[C@H](O)[C@@H](O)[C@H]2O)[C@@H](C)O)N(C)C1` [Lincomycin], the “Zone (mm)” value in the assay with S. maltophilia (Quantity 2 μg) is reported as “Resistant”.

Regarding `CC(=O)NC[C@H]1CN(c2ccc(N3CCOCC3)c(F)c2)C(=O)O1` [Linezolid], the “Zone of growth inhibition in mm” value worked out at 00 mm in the assay on S. paratyphi; 35 mm with E. coli; 35 mm with B. cereus (2); 00 mm in the assay on P. aeruginosa; 00 mm with P. putida; 40 mm with S. mutans. The “Zone of growth inhibition in mm” value with B. sphaericus is recorded as 30 mm; with P. mirabilis it was 35 mm; in the assay with B. circulans, 38 mm; with M. luteus, 45 mm; with S. maltophilla, 00 mm; in the assay with Lysinobacillus, 40 mm. Moreover, the “Zone of growth inhibition in mm” value with B. cereus (1) was determined as 00 mm; with B. sterothemophilus, 00 mm; with B. megatherium, 37 mm; in the assay on B. cereus (3) it was 45 mm; with P. vulgaris it was 00 mm; in the assay on B. subtilis it was 40 mm. In addition, the “Zone of growth inhibition in mm” value in the assay on S. typhi was 40 mm; with K. pneumonia it was 35 mm. The zone of inhibition at 50 µg/disc in assay [1] (S. maltophilia, agar plates, 50 μg of each compound dissolved in DMSO) came to 0 mm. For the same compound, the “Activity against S. maltophilia (in words)” value in [1] is on record as “not inhibitory”.

With `CCn1cc(C(=O)O)c(=O)c2ccc(C)nc21` [Nalidixic], in the assay on S. maltophilia (Quantity 30 μg), the “Zone (mm)” value is given as 7 mm.

In the case of `CCN[C@@H]1C[C@H](N)[C@@H](O[C@H]2OC(CN)=CC[C@H]2N)[C@H](O)[C@H]1O[C@H]1OC[C@](C)(O)[C@H](NC)[C@H]1O.CCN[C@@H]1C[C@H](N)[C@@H](O[C@H]2OC(CN)=CC[C@H]2N)[C@H](O)[C@H]1O[C@H]1OC[C@](C)(O)[C@H](NC)[C@H]1O.O=S(=O)(O)O.O=S(=O)(O)O.O=S(=O)(O)O.O=S(=O)(O)O.O=S(=O)(O)O` [Netillin(Netilmicin sulphate), Netilmicin sulphate], in the assay with S. maltophilia (Quantity 30 μg), the “Zone (mm)” value is reported as 7 mm.

Regarding `CN[C@H](CC(C)C)C(=O)N[C@H]1C(=O)N[C@@H](CC(N)=O)C(=O)N[C@H]2C(=O)N[C@H]3C(=O)N[C@H](C(=O)N[C@H](C(=O)O)c4cc(O)cc(O)c4-c4cc3ccc4O)[C@H](O)c3ccc(c(Cl)c3)Oc3cc2cc(c3O[C@@H]2O[C@H](CO)[C@@H](O)[C@H](O)[C@H]2O[C@H]2C[C@](C)(N)[C@H](O)[C@H](C)O2)Oc2ccc(cc2Cl)[C@H]1O` [Vancomycin], the “Zone of growth inhibition in mm” value came to 25 mm with S. paratyphi; 25 mm with E. coli; 27 mm in the assay with B. cereus (2); 00 mm in the assay on P. aeruginosa; 00 mm in the assay on P. putida; 30 mm with S. mutans. Besides, the “Zone of growth inhibition in mm” value was found to be 12 mm in the assay with B. sphaericus; 27 mm in the assay with P. mirabilis; 27 mm with B. circulans; 32 mm in the assay with M. luteus; 00 mm with S. maltophilla; 30 mm in the assay on Lysinobacillus. Besides, the “Zone of growth inhibition in mm” value is recorded as 00 mm with B. cereus (1); 00 mm in the assay on B. sterothemophilus; 27 mm in the assay on B. megatherium; 32 mm in the assay with B. cereus (3); 00 mm with P. vulgaris; 25 mm with B. subtilis. Further, the “Zone of growth inhibition in mm” value in the assay on S. typhi amounted to 14 mm; with K. pneumonia it was 25 mm. In assay [1], the zone of inhibition at 50 µg/disc is 0 mm. Moreover, the “Activity against S. maltophilia (in words)” value in [1] is given as “not inhibitory”.

For the compound Gentamicin, the “Zone (mm)” value with S. maltophilia (Quantity 10 μg) stood at 7 mm.

For the compound Penicillin, the “Zone (mm)” value in the assay on S. maltophilia (Quantity 10 μg) is recorded as 6 mm.

Consider Teicoplanin, for which the “Zone (mm)” value in the assay with S. maltophilia (Quantity 30 μg) amounted to 4 mm.
